Species: Rattus norvegicus
Assay: DrugMatrix - Regimen: Daily Repeat
Assay type: toxicity, organism-based, Sprague-Dawley
Set-up: regimen Daily Repeat, gender Male, age 6-8 weeks
Settings: in vivo, po, route oral GAVAGE, vehicle .5 % CMC; for ALBUMIN / ALKALINE PHOSPHATASE / ASPARTATE AMINOTRANSFERASE / BLOOD UREA NITROGEN / CARBON DIOXIDE / CHLORIDE / CHOLESTEROL / CREATINE PHOSPHOKINASE / CREATININE / GLUCOSE / LACTATE DEHYDROGENASE / PHOSPHORUS / POTASSIUM / SODIUM / TOTAL BILIRUBIN / TOTAL PROTEIN / URIC ACID / ALANINE AMINOTRANSFERASE: tissue Plasma; for ABSOLUTE BASOPHIL / ABSOLUTE EOSINOPHIL / ABSOLUTE LYMPHOCYTE / ABSOLUTE SEGMENTED NEUTROPHIL / BASOPHIL / EOSINOPHIL / ERYTHROCYTE COUNT / HEMATOCRIT / LEUKOCYTE COUNT / LYMPHOCYTE / MEAN CORPUSCULAR HEMOGLOBIN / MEAN CORPUSCULAR HEMOGLOBIN CONCENTRATION / MEAN CORPUSCULAR VOLUME / MONOCYTE / NEUTROPHIL / NUCLEATED RED BLOOD CELLS / PLATELET COUNT: tissue Blood
[1] = 3 mg/kg, 120 h, dose level Low, time 5 day
[2] = 250 mg/kg, 72 h, dose level M1, time 3 day
[3] = 250 mg/kg, 120 h, dose level M1, time 5 day
[4] = 500 mg/kg, 72 h, dose level High, time 3 day

CCN(CC)CCOc1ccc(/C(=C(/Cl)c2ccccc2)c2ccccc2)cc1 [ENCLOMIPHENE]
ALBUMIN [1]: 4.23 G/DL
ALKALINE PHOSPHATASE [1]: 396 u/L
ASPARTATE AMINOTRANSFERASE [1]: 74.33 u/L
BLOOD UREA NITROGEN [1]: 15 mg/dL
CARBON DIOXIDE [1]: 26 mmol/L
CHLORIDE [1]: 102.33 MEQ/L
CHOLESTEROL [1]: 19 mg/dL
CREATINE PHOSPHOKINASE [1]: 301 u/L
CREATININE [1]: 0.17 mg/dL
GLUCOSE [1]: 167.33 mg/dL
LACTATE DEHYDROGENASE [1]: 159.33 u/L
PHOSPHORUS [1]: 11.77 mg/dL
POTASSIUM [1]: 6.49 MEQ/L
SODIUM [1]: 144.63 MEQ/L
TOTAL BILIRUBIN [1]: 0.13 mg/dL
TOTAL PROTEIN [1]: 6.17 G/DL
URIC ACID [1]: 1.3 mg/dL
ABSOLUTE BASOPHIL [2]: 0 CELLS/uL
ABSOLUTE EOSINOPHIL [2]: 257 CELLS/uL
ABSOLUTE LYMPHOCYTE [2]: 8100 CELLS/uL
ABSOLUTE SEGMENTED NEUTROPHIL [2]: 6509.67 CELLS/uL
BASOPHIL [2]: 0%
EOSINOPHIL [2]: 1.67%
ERYTHROCYTE COUNT [2]: 6.81 x10E6/uL
HEMATOCRIT [2]: 42.67%
LEUKOCYTE COUNT [2]: 14.87 x10E3/uL
LYMPHOCYTE [2]: 63%
MEAN CORPUSCULAR HEMOGLOBIN [2]: 22.93 pg
MEAN CORPUSCULAR HEMOGLOBIN CONCENTRATION [2]: 36.33 G/DL
MEAN CORPUSCULAR VOLUME [2]: 63.07 fL
MONOCYTE [2]: 0%
NEUTROPHIL [2]: 35.33%
NUCLEATED RED BLOOD CELLS [2]: 0 /100WBC
PLATELET COUNT [2]: 1358.67 x10E3/uL
ALANINE AMINOTRANSFERASE [2]: 103.33 u/L
ALBUMIN [2]: 3.87 G/DL
ALKALINE PHOSPHATASE [2]: 393.33 u/L
ASPARTATE AMINOTRANSFERASE [2]: 112.33 u/L
BLOOD UREA NITROGEN [2]: 17 mg/dL
CARBON DIOXIDE [2]: 21.67 mmol/L
CHLORIDE [2]: 104.67 MEQ/L
CHOLESTEROL [2]: 20.67 mg/dL
CREATINE PHOSPHOKINASE [2]: 596.67 u/L
CREATININE [2]: 0.17 mg/dL
GLUCOSE [2]: 156.67 mg/dL
LACTATE DEHYDROGENASE [2]: 305 u/L
PHOSPHORUS [2]: 12.63 mg/dL
POTASSIUM [2]: 6.02 MEQ/L
SODIUM [2]: 145 MEQ/L
TOTAL BILIRUBIN [2]: 0.0667 mg/dL
TOTAL PROTEIN [2]: 5.43 G/DL
URIC ACID [2]: 2.13 mg/dL
ABSOLUTE BASOPHIL [3]: 0 CELLS/uL
ABSOLUTE EOSINOPHIL [3]: 97.33 CELLS/uL
ABSOLUTE LYMPHOCYTE [3]: 15789.33 CELLS/uL
ABSOLUTE SEGMENTED NEUTROPHIL [3]: 1980 CELLS/uL
BASOPHIL [3]: 0%
EOSINOPHIL [3]: 0.67%
ERYTHROCYTE COUNT [3]: 7.29 x10E6/uL
HEMATOCRIT [3]: 44.07%
LEUKOCYTE COUNT [3]: 17.87 x10E3/uL
LYMPHOCYTE [3]: 88.33%
MEAN CORPUSCULAR HEMOGLOBIN [3]: 22.33 pg
MEAN CORPUSCULAR HEMOGLOBIN CONCENTRATION [3]: 36.8 G/DL
MEAN CORPUSCULAR VOLUME [3]: 60.6 fL
MONOCYTE [3]: 0%
NEUTROPHIL [3]: 11%
NUCLEATED RED BLOOD CELLS [3]: 0 /100WBC
PLATELET COUNT [3]: 1119 x10E3/uL
ALANINE AMINOTRANSFERASE [3]: 135 u/L
ALBUMIN [3]: 3.8 G/DL
ALKALINE PHOSPHATASE [3]: 350 u/L
ASPARTATE AMINOTRANSFERASE [3]: 128 u/L
BLOOD UREA NITROGEN [3]: 17.67 mg/dL
CARBON DIOXIDE [3]: 25.33 mmol/L
CHLORIDE [3]: 104.33 MEQ/L
CHOLESTEROL [3]: 27.67 mg/dL
CREATINE PHOSPHOKINASE [3]: 820.67 u/L
CREATININE [3]: 0.15 mg/dL
GLUCOSE [3]: 142.67 mg/dL
LACTATE DEHYDROGENASE [3]: 135 u/L
PHOSPHORUS [3]: 11.73 mg/dL
POTASSIUM [3]: 6.75 MEQ/L
SODIUM [3]: 147.17 MEQ/L
TOTAL BILIRUBIN [3]: 0.1 mg/dL
TOTAL PROTEIN [3]: 5.37 G/DL
URIC ACID [3]: 1.8 mg/dL
ABSOLUTE BASOPHIL [4]: 0 CELLS/uL
ABSOLUTE EOSINOPHIL [4]: 68.67 CELLS/uL
ABSOLUTE LYMPHOCYTE [4]: 11139 CELLS/uL
ABSOLUTE SEGMENTED NEUTROPHIL [4]: 1343.67 CELLS/uL
BASOPHIL [4]: 0%
EOSINOPHIL [4]: 0.67%
ERYTHROCYTE COUNT [4]: 6.43 x10E6/uL
HEMATOCRIT [4]: 40.43%
LEUKOCYTE COUNT [4]: 12.83 x10E3/uL
LYMPHOCYTE [4]: 86.67%
MEAN CORPUSCULAR HEMOGLOBIN [4]: 24.7 pg
MEAN CORPUSCULAR HEMOGLOBIN CONCENTRATION [4]: 39.23 G/DL
MEAN CORPUSCULAR VOLUME [4]: 62.87 fL
MONOCYTE [4]: 2%
NEUTROPHIL [4]: 10.67%
NUCLEATED RED BLOOD CELLS [4]: 0 /100WBC
PLATELET COUNT [4]: 1271 x10E3/uL
ALANINE AMINOTRANSFERASE [4]: 113.33 u/L
ALBUMIN [4]: 3.63 G/DL
ALKALINE PHOSPHATASE [4]: 288.33 u/L
ASPARTATE AMINOTRANSFERASE [4]: 124 u/L
BLOOD UREA NITROGEN [4]: 11 mg/dL
CARBON DIOXIDE [4]: 32 mmol/L
CHLORIDE [4]: 105.33 MEQ/L
CHOLESTEROL [4]: 25.33 mg/dL
CREATINE PHOSPHOKINASE [4]: 861 u/L
CREATININE [4]: 0.1 mg/dL
GLUCOSE [4]: 141 mg/dL
LACTATE DEHYDROGENASE [4]: 193.67 u/L
PHOSPHORUS [4]: 12.93 mg/dL
POTASSIUM [4]: 5.84 MEQ/L
SODIUM [4]: 146.17 MEQ/L
TOTAL BILIRUBIN [4]: 0.1 mg/dL
TOTAL PROTEIN [4]: 5.03 G/DL
URIC ACID [4]: 1.43 mg/dL
